Experiments:
SK-MEL-2 [1] = assay: Antiproliferative activity against human SK-MEL-2 cells assessed as growth inhibition after 48 hrs by sulforhodamine B assay; assay type: functional; conditions: SK-MEL-2, 48 h; for CC50: read-out: LC50 (the source's name)
M14 [2] = assay: Antiproliferative activity against human M14 cells assessed as growth inhibition after 48 hrs by sulforhodamine B assay; assay type: functional; conditions: M14, 48 h; for CC50: read-out: LC50 (the source's name)
[3] = Antiproliferative activity against human SNB75 cells assessed as growth inhibition after 48 hrs by sulforhodamine B assay; assay type: functional; conditions: SNB-75, 48 h; for CC50: read-out: LC50 (the source's name)
[4] = Antiproliferative activity against human HOP92 cells assessed as growth inhibition after 48 hrs by sulforhodamine B assay; assay type: functional; conditions: HOP-92, 48 h
MDA-MB-468 = assay: Antiproliferative activity against human MDA-MB-468 cells assessed as growth inhibition after 48 hrs by sulforhodamine B assay; assay type: functional; conditions: MDA-MB-468, 48 h; for CC50: read-out: LC50 (the source's name)
[5] = Antiproliferative activity against human UO31 cells assessed as growth inhibition after 48 hrs by sulforhodamine B assay; assay type: functional; conditions: UO-31, 48 h; for CC50: read-out: LC50 (the source's name)
[6] = Antiproliferative activity against human OVCAR3 cells assessed as growth inhibition after 48 hrs by sulforhodamine B assay; assay type: functional; conditions: OVCAR-3, 48 h
[7] = Antiproliferative activity against human DU145 cells assessed as growth inhibition after 48 hrs by sulforhodamine B assay; assay type: functional; conditions: DU-145, 48 h; for CC50: read-out: LC50 (the source's name)
[8] = Antiproliferative activity against human HOP62 cells assessed as growth inhibition after 48 hrs by sulforhodamine B assay; assay type: functional; conditions: HOP-62, 48 h
SK-MEL-28 = assay: Antiproliferative activity against human SK-MEL-28 cells assessed as growth inhibition after 48 hrs by sulforhodamine B assay; assay type: functional; conditions: SK-MEL-28, 48 h; for CC50: read-out: LC50 (the source's name)
CCRF-CEM = assay: Antiproliferative activity against human CCRF-CEM cells assessed as cell growth at 10^-4 M after 48 hrs by sulforhodamine B assay; assay type: functional; conditions: read-out: Activity
M14 [9] = assay: Antiproliferative activity against human M14 cells assessed as cell growth at 10^-6 M after 48 hrs by sulforhodamine B assay; assay type: functional; conditions: M14, 48 h, read-out: Activity
[10] = target: RAF proto-oncogene serine/threonine-protein kinase (Homo sapiens, UniProt P04049); assay: Inhibition of human CRAF at 10 uM measured after 40 mins by scintillation counting
Sequence of RAF proto-oncogene serine/threonine-protein kinase (P04049 whole entry): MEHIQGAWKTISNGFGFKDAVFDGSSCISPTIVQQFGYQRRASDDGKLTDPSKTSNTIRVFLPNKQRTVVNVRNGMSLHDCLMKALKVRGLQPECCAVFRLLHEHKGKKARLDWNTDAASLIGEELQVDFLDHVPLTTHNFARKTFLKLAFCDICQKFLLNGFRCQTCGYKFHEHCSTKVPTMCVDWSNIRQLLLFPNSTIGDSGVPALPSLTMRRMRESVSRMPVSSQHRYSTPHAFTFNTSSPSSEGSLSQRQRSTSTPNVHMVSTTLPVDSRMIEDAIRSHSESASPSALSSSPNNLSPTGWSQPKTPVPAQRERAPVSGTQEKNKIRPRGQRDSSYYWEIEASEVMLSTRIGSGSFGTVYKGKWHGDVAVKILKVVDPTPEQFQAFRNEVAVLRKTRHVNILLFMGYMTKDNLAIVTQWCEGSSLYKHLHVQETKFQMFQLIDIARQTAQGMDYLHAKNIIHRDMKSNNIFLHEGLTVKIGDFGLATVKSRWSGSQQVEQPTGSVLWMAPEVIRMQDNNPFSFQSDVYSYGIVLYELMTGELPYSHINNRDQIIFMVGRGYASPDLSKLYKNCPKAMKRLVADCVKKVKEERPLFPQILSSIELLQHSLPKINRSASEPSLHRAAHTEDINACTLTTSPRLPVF

[11] = Antiproliferative activity against human OVCAR3 cells assessed as cell growth at 10^-4 M after 48 hrs by sulforhodamine B assay; assay type: functional; conditions: OVCAR-3, 48 h, read-out: Activity
[12] = Antiproliferative activity against human RXF393 cells assessed as cell growth at 10^-8 M after 48 hrs by sulforhodamine B assay; assay type: functional; conditions: RXF 393, 48 h, read-out: Activity
[13] = Antiproliferative activity against human OVCAR8 cells assessed as cell growth at 10^-7 M after 48 hrs by sulforhodamine B assay; assay type: functional; conditions: OVCAR-8, 48 h, read-out: Activity
NCI-H522 = assay: Antiproliferative activity against human NCI-H522 cells assessed as cell growth at 10^-6 M after 48 hrs by sulforhodamine B assay; assay type: functional; conditions: NCI-H522, 48 h, read-out: Activity
[14] = Antiproliferative activity against human HL-60(TB) cells assessed as cell growth at 10^-6 M after 48 hrs by sulforhodamine B assay; assay type: functional; conditions: HL-60, 48 h, read-out: Activity
NCI-H226 = assay: Antiproliferative activity against human NCI-H226 cells assessed as cell growth at 10^-7 M after 48 hrs by sulforhodamine B assay; assay type: functional; conditions: NCI-H226, 48 h, read-out: Activity
[15] = Antiproliferative activity against human Hs 578T cells assessed as cell growth at 10^-7 M after 48 hrs by sulforhodamine B assay; assay type: functional; conditions: read-out: Activity
SK-MEL-2 [16] = assay: Antiproliferative activity against human SK-MEL-2 cells assessed as cell growth at 10^-7 M after 48 hrs by sulforhodamine B assay; assay type: functional; conditions: SK-MEL-2, 48 h, read-out: Activity
[17] = Antiproliferative activity against human OVCAR3 cells assessed as cell growth at 10^-6 M after 48 hrs by sulforhodamine B assay; assay type: functional; conditions: OVCAR-3, 48 h, read-out: Activity
A498 = assay: Antiproliferative activity against human A498 cells assessed as cell growth at 10^-4 M after 48 hrs by sulforhodamine B assay; assay type: functional; conditions: A498, 48 h, read-out: Activity
[18] = Antiproliferative activity against human SNB75 cells assessed as cell growth at 10^-4 M after 48 hrs by sulforhodamine B assay; assay type: functional; conditions: SNB-75, 48 h, read-out: Activity
[19] = Antiproliferative activity against human HOP92 cells assessed as cell growth at 10^-8 M after 48 hrs by sulforhodamine B assay; assay type: functional; conditions: HOP-92, 48 h, read-out: Activity
[20] = Antiproliferative activity against human LOXIMVI cells assessed as cell growth at 10^-8 M after 48 hrs by sulforhodamine B assay; assay type: functional; conditions: LOX IMVI, read-out: Activity
[21] = Antiproliferative activity against human TK10 cells assessed as cell growth at 10^-4 M after 48 hrs by sulforhodamine B assay; assay type: functional; conditions: TK-10, 48 h, read-out: Activity
[22] = Antiproliferative activity against human OVCAR8 cells assessed as cell growth at 10^-6 M after 48 hrs by sulforhodamine B assay; assay type: functional; conditions: OVCAR-8, 48 h, read-out: Activity
[23] = Antiproliferative activity against human SF539 cells assessed as cell growth at 10^-8 M after 48 hrs by sulforhodamine B assay; assay type: functional; conditions: SF-539, 48 h, read-out: Activity
[24] = Antiproliferative activity against human UACC257 cells assessed as cell growth at 10^-8 M after 48 hrs by sulforhodamine B assay; assay type: functional; conditions: UACC-257, 48 h, read-out: Activity
MCF7 = assay: Antiproliferative activity against human MCF7 cells assessed as cell growth at 10^-4 M after 48 hrs by sulforhodamine B assay; assay type: functional; conditions: MCF7, 48 h, read-out: Activity
NCI-H322M = assay: Antiproliferative activity against human NCI-H322M cells assessed as cell growth at 10^-8 M after 48 hrs by sulforhodamine B assay; assay type: functional; conditions: read-out: Activity
[25] = Antiproliferative activity against human OVCAR8 cells assessed as cell growth at 10^-8 M after 48 hrs by sulforhodamine B assay; assay type: functional; conditions: OVCAR-8, 48 h, read-out: Activity
SK-MEL-5 = assay: Antiproliferative activity against human SK-MEL-5 cells assessed as cell growth at 10^-6 M after 48 hrs by sulforhodamine B assay; assay type: functional; conditions: SK-MEL-5, 48 h, read-out: Activity

CNC(=O)c1cc(Oc2ccc(NC(=O)Nc3ccc(Cl)c(C(F)(F)F)c3)cc2)ccn1 [SORAFENIB]
GI50 (SK-MEL-2 [1]): 2 µM | TGI (SK-MEL-2 [1]): 3.16 µM | CC50 (SK-MEL-2 [1]): 6.31 µM | GI50 (M14 [2]): 2 µM | TGI (M14 [2]): 5.01 µM | CC50 (M14 [2]): 25.1 µM | GI50 [3]: 3.16 µM | TGI [3]: 10 µM | CC50 [3]: 39.8 µM | TGI [4]: 5.01 µM | GI50 (MDA-MB-468): 2 µM | TGI (MDA-MB-468): 7.94 µM | CC50 (MDA-MB-468): 39.8 µM | GI50 [5]: 2.51 µM | TGI [5]: 7.94 µM | CC50 [5]: 39.8 µM | GI50 [6]: 3.16 µM | TGI [6]: 12.6 µM | GI50 [7]: 3.16 µM | TGI [7]: 10 µM | CC50 [7]: 50.1 µM | GI50 [8]: 2 µM | TGI [8]: 7.94 µM | GI50 (SK-MEL-28): 2.51 µM | TGI (SK-MEL-28): 7.94 µM | CC50 (SK-MEL-28): 31.6 µM

CNC(=O)c1cc(Oc2ccc3nc(NC(=O)Nc4cc(C(F)(F)F)cc(C(F)(F)F)c4)sc3c2)ccn1
growth at 100 µM (CCRF-CEM): -36% | growth at 1 µM (M14 [9]): 77% | inhibition [10]: 77% | growth at 100 µM [11]: -89% | growth at 0.01 µM [12]: 89% | growth at 0.1 µM [13]: 102% | growth at 1 µM (NCI-H522): 32% | growth at 1 µM [14]: 75% | GI50 (SK-MEL-2 [1]): 1.05 µM | TGI (SK-MEL-2 [1]): 3.13 µM | CC50 (SK-MEL-2 [1]): 9.31 µM | growth at 0.1 µM (NCI-H226): 87% | growth at 0.1 µM [15]: 100% | growth at 0.1 µM (SK-MEL-2 [16]): 97% | GI50 (M14 [2]): 1.5 µM | TGI (M14 [2]): 3.22 µM | CC50 (M14 [2]): 6.9 µM | growth at 1 µM [17]: 52% | GI50 [3]: 1 µM | TGI [3]: 2.7 µM | CC50 [3]: 7.26 µM | growth at 100 µM (A498): -93% | growth at 100 µM [18]: -75% | growth at 0.01 µM [19]: 102% | growth at 0.01 µM [20]: 93% | GI50 [4]: 0.301 µM | LC50 [4]: 5.14 µM | TGI [4]: 0.949 µM | growth at 100 µM [21]: -87% | GI50 (MDA-MB-468): 0.399 µM | TGI (MDA-MB-468): 1.75 µM | CC50 (MDA-MB-468): 6.08 µM | GI50 [5]: 1.26 µM | TGI [5]: 2.68 µM | CC50 [5]: 5.71 µM | GI50 [6]: 1.03 µM | LC50 [6]: 5.04 µM | TGI [6]: 2.27 µM | growth at 1 µM [22]: 70% | growth at 0.01 µM [23]: 96% | GI50 [7]: 1.25 µM | TGI [7]: 2.98 µM | CC50 [7]: 7.14 µM | growth at 0.01 µM [24]: 102% | growth at 100 µM (MCF7): -55% | growth at 0.01 µM (NCI-H322M): 95% | GI50 [8]: 1.15 µM | LC50 [8]: 6.79 µM | TGI [8]: 2.8 µM | growth at 0.01 µM [25]: 102% | growth at 1 µM (SK-MEL-5): 36% | GI50 (SK-MEL-28): 1.29 µM | TGI (SK-MEL-28): 2.93 µM | CC50 (SK-MEL-28): 6.62 µM
